Measured values reported in patent US20080085893A1, “MATRIX METALLOPROTEASE INHIBITORS” (priority 2006, published 2008).
Where “and” joins values, the source holds several entries; their conditions need not be identical. Equal values may be shown once.

Columns and labels:
Format in all cases: biochemical
[1] = target: T1, human MMP-2 (amino acids 1-660) (Homo sapiens, UniProt P08253); experiment: MMP dose response assay for determining IC50, MMP-2; details: recombinant enzyme, fluorescent-quench substrate 100 nM; read-out: MMP-2
T1 construct: human MMP-2 (amino acids 1-660); made in house
T1 sequence (P08253 110-660): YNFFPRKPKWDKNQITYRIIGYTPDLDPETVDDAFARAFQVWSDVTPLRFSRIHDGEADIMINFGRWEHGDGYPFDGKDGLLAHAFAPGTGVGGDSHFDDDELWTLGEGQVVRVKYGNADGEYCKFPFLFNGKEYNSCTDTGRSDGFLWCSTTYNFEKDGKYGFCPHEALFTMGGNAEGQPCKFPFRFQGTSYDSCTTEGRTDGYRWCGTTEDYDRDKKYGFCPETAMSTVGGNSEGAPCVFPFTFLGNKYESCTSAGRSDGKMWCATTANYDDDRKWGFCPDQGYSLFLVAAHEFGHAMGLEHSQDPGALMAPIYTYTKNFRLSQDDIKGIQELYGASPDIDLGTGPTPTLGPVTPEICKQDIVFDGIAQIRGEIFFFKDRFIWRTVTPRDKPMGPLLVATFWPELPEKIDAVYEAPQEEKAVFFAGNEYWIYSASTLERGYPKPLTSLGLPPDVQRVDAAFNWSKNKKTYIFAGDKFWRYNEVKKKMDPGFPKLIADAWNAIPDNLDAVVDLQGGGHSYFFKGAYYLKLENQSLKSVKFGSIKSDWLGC
Method: (§1) MMP Dose Response Assay for Determining IC50
(§2) The following method was used for determining IC50 values of different inhibitor compounds against multiple MMP enzymes. Frozen stocks of recombinantly produced MMPs were prepared in assay buffer (50 mM HEPES pH 7.4, 10 mM CaCl2, 0.05% Brij-35). […] Enzyme concentrations in the assay were determined empirically and set such that proteolytic activity was maintained in a linear range over the time-course of the experiment. […] Each concentration for each test compound was tested in triplicate. MMP enzymes were equilibrated with compounds for 1 hour at room temperature, then a fluorescent-quench substrate (Acetyl-Cys(Eu)-Pro-Leu-Gly-Leu-Lys-(QSY7)-Ala-Arg-amide) was added to a final concentration of 100 nM. […] Data was analyzed by first calculating average background value from wells that contained only substrate, and this value was subtracted from the entire plate. The 100%, or maximum value, was determined by averaging control wells that contained enzyme, substrate and DMSO. For each well, the percent of control was calculated by dividing the well value by the average DMSO value obtained above.

[2] = target: T2, human MMP-9 (amino acids 107-446) (Homo sapiens, UniProt P14780); experiment: MMP dose response assay for determining IC50, MMP-9; details: recombinant enzyme, fluorescent-quench substrate 100 nM; read-out: MMP-9
T2 construct: human MMP-9 (amino acids 107-446); made in house
T2 sequence (P14780 107-446): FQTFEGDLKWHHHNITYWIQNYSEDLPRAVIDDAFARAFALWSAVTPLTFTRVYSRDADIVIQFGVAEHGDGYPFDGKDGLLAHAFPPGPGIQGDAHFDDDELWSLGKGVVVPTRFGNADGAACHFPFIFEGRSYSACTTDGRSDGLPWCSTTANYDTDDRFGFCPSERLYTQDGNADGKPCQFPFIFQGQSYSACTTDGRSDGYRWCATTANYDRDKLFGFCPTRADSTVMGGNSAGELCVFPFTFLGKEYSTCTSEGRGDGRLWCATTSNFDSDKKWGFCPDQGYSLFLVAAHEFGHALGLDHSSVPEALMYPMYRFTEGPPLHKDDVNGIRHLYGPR
Method: as §1, §2

[3] = target: T3, human MMP-1 (amino acids 100-262) (Homo sapiens, UniProt P03956); experiment: MMP dose response assay for determining IC50, MMP-1; details: recombinant catalytic domain, fluorescent-quench substrate 100 nM
T3 construct: human MMP-1 (amino acids 100-262); made in house
T3 sequence (P03956 100-262): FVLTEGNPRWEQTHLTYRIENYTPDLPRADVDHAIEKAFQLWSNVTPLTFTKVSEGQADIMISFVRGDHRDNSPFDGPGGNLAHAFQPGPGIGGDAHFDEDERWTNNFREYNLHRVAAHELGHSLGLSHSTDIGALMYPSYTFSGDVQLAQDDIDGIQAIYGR
Method: as §1, §2

IC50 [1]	IC50 [2]	IC50 [3]	Compound
0.115 µM and 0.169 µM	0.0214 µM and 0.0336 µM	> 10 µM	CCS(=O)(=O)N(C[C@H](O)C(=O)NO)c1ccc(Oc2ccc(C)cc2)cc1 [Example 20, N-Hydroxy (2S)-2-hydroxy-3-{N-[4-(4-methylphenoxy)phenyl],N-ethylsulfonylamino}propionamide]
0.21 µM and 0.342 µM	0.0108 µM and 0.0416 µM	> 10 µM	Cc1ccc(Oc2ccc(N(C[C@@H](OCc3ccccc3)C(=O)NO)S(C)(=O)=O)cc2)cc1 [Example 22, N-Hydroxy (2R)-2-benzyloxy-3-{N-[4-(4-methylphenoxy)phenyl],N-methanesulfonylamino}propionamide]
0.0562 µM and 0.0904 µM	0.0026 µM and 0.00922 µM	> 10 µM	Cc1ccc(Oc2ccc(N(C[C@H](OCc3ccccc3)C(=O)NO)S(C)(=O)=O)cc2)cc1 [Example 23, N-Hydroxy (2S)-2-benzyloxy-3-{N-[4-(4-methylphenoxy)phenyl],N-methanesulfonylamino}propionamide]
0.187 µM and 0.168 µM	0.0378 µM and 0.0249 µM	> 10 µM	Cc1ccc(Oc2ccc(N(C[C@@H](NC(C)C)C(=O)NO)S(C)(=O)=O)cc2)cc1 [Example 24, N-Hydroxy (2R)-3-{N-[4-(4-methylphenoxy)phenyl],N-methanesulfonylamino}-2-(2-propyl)aminopropionamide]
0.202 µM	0.00716 µM	> 10 µM	Cc1ccc(Oc2ccc(N(C[C@H](NCc3ccccc3)C(=O)NO)S(C)(=O)=O)cc2)cc1 [Example 25, N-Hydroxy (2S)-2-benzylamino-3-{N-[4-(4-methylphenoxy)phenyl],N-methanesulfonylamino}propionamide]
0.0548 µM	0.0933 µM	> 10 µM	Cc1ccc(Oc2ccc(N(C[C@@H](NCc3ccccc3)C(=O)NO)S(C)(=O)=O)cc2)cc1 [Example 26, N-Hydroxy (2R)-2-benzylamino-3-{N-[4-(4-methylphenoxy)phenyl],N-methanesulfonylamino}propionamide]
1.32 µM	0.295 µM	> 10 µM	Cc1ccc(Oc2ccc(N(C[C@H](C(=O)NO)N3CCOCC3)S(C)(=O)=O)cc2)cc1 [Example 28, N-Hydroxy (2R)-3-{N-[4-(4-methylphenoxy)phenyl],N-methanesulfonylamino}-2-(morpholin-4-yl)propionamide]
0.67 µM	0.12 µM	> 10 µM	Cc1ccc(Oc2ccc(N(C[C@H](N)C(=O)NO)S(C)(=O)=O)cc2)cc1 [Example 29, N-Hydroxy (2S)-2-amino-3-{N-[4-(4-methylphenoxy)phenyl],N-methanesulfonylamino}propionamide]
0.344 µM	0.0542 µM	> 10 µM	Cc1ccc(Oc2ccc(N(C[C@H](O)C(=O)NO)S(=O)(=O)Cc3ccncc3)cc2)cc1 [Example 31, N-Hydroxy (2S)-2-hydroxy-3-{N-[4-(4-methylphenoxy)phenyl],N-(pryidin-4-yl)methylsulfonylamino}propionamide]
0.401 µM	0.0687 µM	> 10 µM	Cc1ccc(Oc2ccc(N(C[C@H](O)C(=O)NO)S(=O)(=O)Cc3cccnc3)cc2)cc1 [Example 32, N-Hydroxy (2S)-2-hydroxy-3-{N-[4-(4-methylphenoxy)phenyl],N-(pryidin-3-yl)methylsulfonylamino}propionamide]
0.00953 µM	0.00177 µM	> 10 µM	Cc1ccc(Oc2ccc(N(C[C@H](NCc3ccncc3)C(=O)NO)S(C)(=O)=O)cc2)cc1 [Example 33, N-Hydroxy (2S)-3-{N-[4-(4-methylphenoxy)phenyl],N-methanesulfonylamino}-2-(pyridine-4-yl)methylaminopropionamide]
0.0834 µM	0.0229 µM	> 10 µM	Cc1ccc(Oc2ccc(N(C[C@H](NCc3ccccn3)C(=O)NO)S(C)(=O)=O)cc2)cc1 [Example 34, N-Hydroxy (2S)-3-{N-[4-(4-methylphenoxy)phenyl],N-methanesulfonylamino}-2-(pyridin2-yl)methylaminopropionamide]
0.0168 µM	0.00284 µM	> 10 µM	Cc1ccc(Oc2ccc(N(C[C@H](NCc3cccnc3)C(=O)NO)S(C)(=O)=O)cc2)cc1 [Example 35, N-Hydroxy (2S)-3-{N-[4-(4-methylphenoxy)phenyl],N-methanesulfonylamino}-2-(pyridine-3-yl)methylaminopropionamide]
0.0114 µM	0.00127 µM	9.22 µM	Cc1ccc(Oc2ccc(N(C[C@H](NCC(C)C)C(=O)NO)S(C)(=O)=O)cc2)cc1 [Example 36, N-Hydroxy (2S)-3-{N-[4-(4-methylphenoxy)phenyl],N-methanesulfonylamino}-2-(2-methylpropyl)aminopropionamide]
0.00998 µM	0.00169 µM	> 10 µM	Cc1ccc(Oc2ccc(N(C[C@H](NC3CCCC3)C(=O)NO)S(C)(=O)=O)cc2)cc1 [Example 37, N-Hydroxy (2S)-2-cyclopentylamino-3-{N-[4-(4-methylphenoxy)phenyl],N-methanesulfonylamino}propionamide]
0.0644 µM	0.00132 µM	> 10 µM	Cc1ccc(Oc2ccc(N(C[C@H](Nc3ccc(F)cc3)C(=O)NO)S(C)(=O)=O)cc2)cc1 [Example 38, N-Hydroxy (2S)-2-(4-fluorophenyl)amino-3-{N-[4-(4-methylphenoxy)phenyl],N-methanesulfonylamino}propionamide]
0.0347 µM and 0.0506 µM and 0.0731 µM and 0.053 µM	0.00046 µM and 0.00118 µM and 0.00168 µM and 0.00025 µM	> 10 µM	Cc1ccc(Oc2ccc(N(C[C@H](Nc3cccc(F)c3)C(=O)NO)S(C)(=O)=O)cc2)cc1 [Example 39, N-Hydroxy (2S)-2-(3-fluorophenyl)amino-3-{N-[4-(4-methylphenoxy)phenyl],N-methanesulfonylamino}propionamide]
0.0308 µM and 0.0147 µM	0.001 µM and 0.00064 µM	6.41 µM and 8.83 µM	Cc1ccc(Oc2ccc(N(C[C@H](Nc3ccc4[nH]ccc4c3)C(=O)NO)S(C)(=O)=O)cc2)cc1 [Example 40, N-Hydroxy (2S)-2-(indol-5-yl)amino-3-{N-[4-(4-methylphenoxy)phenyl],N-methanesulfonylamino}propionamide]
0.127 µM	0.00256 µM	> 10 µM	Cc1ccc(Oc2ccc(N(C[C@H](Nc3ccc(F)c(F)c3)C(=O)NO)S(C)(=O)=O)cc2)cc1 [Example 41, N-Hydroxy (2S)-2-(3,4-difluorophenyl)amino-3-{N-[4-(4-methylphenoxy)phenyl],N-methanesulfonylamino}propionamide]
0.431 µM	0.0199 µM	> 10 µM	Cc1ccc(Oc2ccc(N(C[C@H](Nc3ccc(F)c(Cl)c3)C(=O)NO)S(C)(=O)=O)cc2)cc1 [Example 42, N-Hydroxy (2S)-2-(3-chloro-4-fluorophenyl)amino-3-{N-[4-(4-methylphenoxy)phenyl],N-methanesulfonylamino}propionamide]
0.336 µM	0.022 µM	> 10 µM	Cc1ccc(Oc2ccc(N(C[C@H](Nc3ccc(Cl)cc3)C(=O)NO)S(C)(=O)=O)cc2)cc1 [Example 43, N-Hydroxy (2S)-2-(4-chlorophenyl)amino-3-{N-[4-(4-methylphenoxy)phenyl],N-methanesulfonylamino}propionamide]
0.333 µM	0.0197 µM	> 10 µM	Cc1ccc(Oc2ccc(N(C[C@H](Nc3cccc(Cl)c3)C(=O)NO)S(C)(=O)=O)cc2)cc1 [Example 44, N-Hydroxy (2S)-2-(3-chlorophenyl)amino-3-{N-[4-(4-methylphenoxy)phenyl],N-methanesulfonylamino}propionamide]
0.682 µM	0.0583 µM	6 µM	Cc1ccc(Oc2ccc(N(C[C@H](Nc3cccc(C(F)(F)F)c3)C(=O)NO)S(C)(=O)=O)cc2)cc1 [Example 45, N-Hydroxy (2S)-3-{N-[4-(4-methylphenoxy)phenyl],N-methanesulfonylamino}-2-(3-trifluorormethylphenyl)aminopropionamide]
